The record followed here is US8883789B2, “Piperazine derivatives and their use as positive allosteric modulators of mGluR5 receptors” (Boehringer Ingelheim International GmbH, priority 2011, dated 2014).

T1 sequence (P41594 21-1212): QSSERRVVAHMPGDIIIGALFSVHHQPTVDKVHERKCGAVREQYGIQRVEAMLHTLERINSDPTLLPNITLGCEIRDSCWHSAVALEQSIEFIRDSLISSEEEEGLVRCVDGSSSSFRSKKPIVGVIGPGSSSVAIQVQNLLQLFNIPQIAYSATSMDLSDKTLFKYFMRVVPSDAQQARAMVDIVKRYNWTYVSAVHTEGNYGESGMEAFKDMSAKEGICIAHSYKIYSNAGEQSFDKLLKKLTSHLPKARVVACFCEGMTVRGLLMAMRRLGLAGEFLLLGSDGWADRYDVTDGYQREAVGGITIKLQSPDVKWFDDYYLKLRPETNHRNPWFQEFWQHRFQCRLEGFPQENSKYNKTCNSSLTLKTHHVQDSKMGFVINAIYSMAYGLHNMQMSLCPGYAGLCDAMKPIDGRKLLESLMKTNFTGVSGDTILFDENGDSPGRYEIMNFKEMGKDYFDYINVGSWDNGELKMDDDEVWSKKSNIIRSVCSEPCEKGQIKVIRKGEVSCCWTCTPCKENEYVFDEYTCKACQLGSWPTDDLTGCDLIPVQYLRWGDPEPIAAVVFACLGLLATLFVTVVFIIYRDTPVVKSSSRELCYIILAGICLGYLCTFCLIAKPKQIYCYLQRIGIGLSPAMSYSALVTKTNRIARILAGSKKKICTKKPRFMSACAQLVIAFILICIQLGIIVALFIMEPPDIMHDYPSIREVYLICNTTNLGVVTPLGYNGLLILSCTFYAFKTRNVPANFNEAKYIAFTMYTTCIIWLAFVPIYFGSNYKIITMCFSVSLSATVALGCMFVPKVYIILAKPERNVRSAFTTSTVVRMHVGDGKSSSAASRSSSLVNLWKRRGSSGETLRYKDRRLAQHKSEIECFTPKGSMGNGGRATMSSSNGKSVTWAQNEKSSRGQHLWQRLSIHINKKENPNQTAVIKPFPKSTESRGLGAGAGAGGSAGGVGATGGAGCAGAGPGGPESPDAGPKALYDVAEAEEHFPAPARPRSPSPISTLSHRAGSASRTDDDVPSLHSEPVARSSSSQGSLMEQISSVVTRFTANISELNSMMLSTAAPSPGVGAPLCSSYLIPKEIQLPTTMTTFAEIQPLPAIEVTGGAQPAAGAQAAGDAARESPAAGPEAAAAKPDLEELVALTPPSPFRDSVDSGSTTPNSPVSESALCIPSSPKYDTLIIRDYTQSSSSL

This test has as its target T1, human recombinant mGluR5 (Homo sapiens, UniProt P41594).
T1 construct: expressed in transfected cells; hygromycin and geneticin selection
Nature of the test: positive modulation of mGluR5, calcium based FLIPR assay. The note with it: HEK 293 cell line expressing human recombinant mGluR5; Ca2+ peak height after glutamate at approximately 5% basal stimulation; nonlinear regression. On the procedure:
The positive modulation of mGluR5 is measured in a HEK 293 cell line expressing human recombinant mGluR5 and is detected with calcium based FLIPR assay. The cells are cultured with DMEM supplemented with 10% FCS, 2 μg/mL tetracycline, 100 μg/mL hygromycin and 500 μg/mL geneticin. The cell culture media is exchanged for tetracycline-free cell culture media 3-7 days before the assay. One day before the assay the cell culture medium is exchanged to DMEM without glutamine and phenol red and supplemented with 10% FCS, 100 μg/mL hygromycin and 500 μg/mL geneticin. On the assay day, the medium of the subconfluent cultures is removed and the cells are detached by addition of 2.5 ml EDTA (0.02%) per 175 cm2 culture flask for 1 minute. The cells are resuspend in Ringer solution (140 mM NaCl, 5 mM KCl, 2.5 mM CaCl2, 1.5 mM MgCl2, 5 mM Glucose, 10 mM Hepes; adjusted to pH 7.4 with NaOH), pooled and Ringer solution added to adjust the volume to 50 mL. The cell suspension is centrifuged for […] at 1500 U/min (425 g). The supernatant is removed and the cells washed a second time with 50 ml fresh Ringer solution and centrifuged again as before. The supernatant is again removed and the pellet resuspended in Ringer solution to 1,000,000 cells/ml (1×10^6 cells/mL). The cells are plated onto BD BioCoat Poly-D-Lysine 384 well plates (20.000 cells/well; 20 μl/well). The lid covered plates are then incubated until use at 37° C./10% CO2. For dye loading, 20 μl of Calcium-4 assay kit solution (prepared according to the manufacturer's description in Ringer solution) are added to the cells and the plates are incubated for 80 min 37° C. and then 10 min at room temperature.
Controls, Compound Dilution and Assay Execution:
Each assay plate contained wells with “high” and “low” controls:
Low controls 1% DMSO/ringer solution+basal glutamate activation (defined as 100% CTL).
High controls 10 μM CDPPB+basal glutamate activation (defined as 200% CTL).
Test compounds are dissolved and diluted in DMSO to 100-fold the desired concentrations. In a second step, the compounds are diluted in Ringer solution such that the compounds are 4-fold more concentrated than the desired final assay concentration. The final DMSO concentration was 1%.
20 μl of each compound solution are then transferred to the assay plate and the Ca2+ kinetic is measured to determine any intrinsic compound activity. After 5 min incubation in the FLIPR device, the second stimulation with 20 μl of glutamate in Ringer solution (glutamate concentration adjusted to approximately 5% basal stimulation of the maximal possible glutamate effect) is added and the kinetic Ca2+ response of the wells was measured for the modulation effect.
The peak height of the Ca release related fluorescence signal (9-66) is used for the EC50.
The EC50 of the modulation is calculated over a nonlinear regression with GraphPad Prism (Table 1).
Turning to `CCC[C@H]1CN(C(=O)c2ncn(-c3cccc(F)c3)n2)CCN1C(=O)c1cccc(OC)n1` [Example 261, (S)-{4-[1-(3-Fluoro-phenyl)-1H-[1,2,4]triazole-3-carbonyl]-2-propyl-piperazin-1-yl}-(6-methoxy-pyridin-2-yl)-methanone], the EC50 stood at 168 nM.
For `CC1(C)CN(C(=O)c2cccc(C3CCCC3)c2)CCN1C(=O)c1ncn(-c2ccccc2)n1` [Example 144] the value was 23 nM; for `CC1(C)CN(C(=O)c2cccc(C3CC3)n2)CCN1C(=O)c1nnn(-c2ccccc2)n1` [Example 180, [4-(6-Cyclopropyl-pyridine-2-carbonyl)-2,2-dimethyl-piperazin-1-yl]-(2-phenyl-2H-tetrazol-5-yl)-methanone], 16 nM.
The result for `Cn1nc(C(=O)N2CCN(C(=O)c3ncn(-c4ccccc4)n3)C(C)(C)C2)c2ccccc21` [Example 123] reads 254 nM.
Regarding `COc1cccc(C(=O)N2C[C@@H](C)N(C(=O)c3ncn(-c4cccc(C)c4)n3)[C@@H](C)C2)n1` [Example 302, (2R*,6S*)-4-[(6-methoxypyridin-2-yl)carbonyl]-2,6-dimethyl-1-{[1-(3-methylphenyl)-1H-1,2,4-triazol-3-yl]carbonyl}piperazine], the half-maximal effective concentration (EC50) amounted to 166 nM.
Regarding `Cc1ccc2oc(C(=O)N3CCN(C(=O)c4ncn(-c5cccc(Cl)c5)n4)C(C)C3)c(C)c2c1` (centres unmarked) [Example 281], the concentration for a half-maximal effect (EC50) stood at 1500 nM.
For `CC1(C)CN(C(=O)c2cc3ccccc3c(OCC3CC3)n2)CCN1C(=O)c1ncn(-c2ccccc2)n1` [Example 103] the value was 49 nM.
For `O=C(c1cc(Br)c(Br)o1)N1CCN(C(=O)c2ncn(-c3cccc(F)c3)n2)C2(CCC2)C1` [Example 306] the value was 445 nM.
For `CC1(C)CN(C(=O)c2cc3ccccn3c2)CCN1C(=O)c1ncn(-c2cccc(Cl)c2)n1` [Example 58] the value was 104 nM; for `COCc1c(C(=O)N2CCN(C(=O)c3ncn(-c4ccccc4)n3)C(C)(C)C2)oc2ccccc12` [Example 107], 108 nM; for `CC1(C)CN(C(=O)c2cccc(C(F)F)c2)CCN1C(=O)c1ncn(-c2ccccc2)n1` [Example 135], 47 nM.
As for `CN(C)c1cccc(C(=O)N2CCN(C(=O)c3ncn(-c4cccc(Cl)c4)n3)C(C)(C)C2)c1` [Example 44], the EC50 was determined as 136 nM.
For `CC1(C)CN(C(=O)c2cccc(-c3cnco3)c2)CCN1C(=O)c1ncn(-c2cccc(Cl)c2)n1` [Example 28] the value was 99 nM.
The result for `Cc1cccc(-n2cnc(C(=O)N3CCN(C(=O)c4cc(Br)c(Br)o4)CC3(C)C)n2)c1` [Example 8] reads 53 nM; that for `COc1cc(C(=O)N2CCN(C(=O)c3ncn(-c4cccc(C)c4)n3)CC2C)ccc1C` (centres unmarked) [Example 235], 314 nM.
For `Cc1cc(C(=O)N2CCN(C(=O)c3ncn(-c4cccc(Cl)c4)n3)C(C)(C)C2)ccc1Cl` [Example 65] the value was 144 nM; for `CC1(C)CN(C(=O)c2cc3ccccc3cn2)CCN1C(=O)c1ncn(-c2cccc(Cl)c2)n1` [Example 35], 350 nM; for `CCC[C@H]1CN(C(=O)c2ncn(-c3cccc(F)c3)n2)CCN1C(=O)c1cc(Br)c(Br)o1` [Example 262], 193 nM.
As for `COc1cccc(C(=O)N2CCN(C(=O)c3ncn(-c4cccc(Br)c4)n3)CC2C)n1` (centres unmarked) [Example 245], the EC50 is 357 nM.
As to `CCc1ccc(C(=O)N2CCN(C(=O)c3ncn(-c4cccc(Cl)c4)n3)C(C)(C)C2)s1` [Example 83], the EC50 was 64 nM.
Regarding `COc1cc(Cl)cc(C(=O)N2CCN(C(=O)c3ncn(-c4cccc(Cl)c4)n3)C(C)(C)C2)n1` [Example 17], the EC50 was 45 nM.
For `CC1(C)CN(C(=O)c2cccc(Cl)c2)CCN1C(=O)c1nnn(-c2ccc(F)cc2)n1` [Example 193], the EC50 was found to be 173 nM.
With `CC1(C)CN(C(=O)c2cccc(-c3ccc(C#N)cc3)c2)CCN1C(=O)c1ncn(-c2cccc(Cl)c2)n1` [Example 78], the concentration for a half-maximal effect (EC50) worked out at 146 nM.
For `COc1ccc2oc(C)c(C(=O)N3CCN(C(=O)c4ncn(-c5cccc(F)c5)n4)C(C)C3)c2c1` (centres unmarked) [Example 287] the value was 242 nM; for `COc1cccc(C(=O)N2CCN(C(=O)c3ncn(-c4cccc(F)c4)n3)CC2C)n1` (centres unmarked) [Example 246], 230 nM; for `CCCOc1nc(C(=O)N2CCN(C(=O)c3ncn(-c4ccccc4)n3)C(C)(C)C2)cc2ccccc12` [Example 99], 28 nM.
For `Cn1ccc2cc(C(=O)N3CCN(C(=O)c4ncn(-c5ccccc5)n4)C(C)(C)C3)ccc21` [Example 138] the value was 136 nM; for `CC1(C)CN(C(=O)c2cccc(S(C)(=O)=O)c2)CCN1C(=O)c1ncn(-c2ccccc2)n1` [Example 131], 1870 nM; for `CCCOc1cccc(C(=O)N2CCN(C(=O)c3ncn(-c4cccc(Cl)c4)n3)C(C)C2)c1` (centres unmarked) [Example 285], 746 nM.
The result for `CC1(C)CN(C(=O)c2noc(-c3ccccc3)n2)CCN1C(=O)c1ncn(-c2ccccc2)n1` [Example 139] reads 314 nM; that for `COc1cccc(C(=O)N2CCN(C(=O)c3nnn(-c4cccc(F)c4)n3)C(C)(C)C2)n1` [Example 202], 65 nM.
For the molecule `Cc1oc2ccccc2c1C(=O)N1CCN(C(=O)c2ncn(-c3ccccc3)n2)C(C)(C)C1` [Example 106], the half-maximal effective concentration (EC50) is 89 nM.
For `Cc1oc2ccccc2c1C(=O)N1CCN(C(=O)c2ncn(-c3ccccc3)n2)C(C)C1` (centres unmarked) [Example 295] the value was 95 nM; for `C[C@H]1CN(C(=O)c2ncn(-c3cccc(Cl)c3)n2)CCN1C(=O)c1cc(Br)c(Br)o1` [Example 254], 157 nM.
The result for `C[C@@H]1CN(C(=O)c2ncn(-c3cccc(Cl)c3)n2)CCN1C(=O)c1cc(Br)c(Br)o1` [Example 249] reads 198 nM; that for `CC1CN(C(=O)c2ncn(-c3cccc(Cl)c3)n2)CCN1C(=O)c1cc(Br)c(Br)o1` (centres unmarked) [Example 210, [1-(3-Chloro-phenyl)-1H-[1,2,4]triazol-3-yl]-[4-(4,5-dibromo-furan-2-carbonyl)-3-methyl-piperazin-1-yl]-methanone], 314 nM; that for `Cc1noc(C)c1-c1cccc(C(=O)N2CCN(C(=O)c3ncn(-c4cccc(Cl)c4)n3)C(C)(C)C2)n1` [Example 90, [1-(3-Chloro-phenyl)-1H-[1,2,4]triazol-3-yl]-{4-[6-(3,5-dimethyl-isoxazol-4-yl)-pyridine-2-carbonyl]-2,2-dimethyl-piperazin-1-yl]-methanone], 38 nM.
For `CC1(C)CN(C(=O)c2cccc(Cl)c2)CCN1C(=O)c1ncn(-c2cc(F)ccc2F)n1` [Example 195], the EC50 stood at 1000 nM.
The result for `CC1(C)CN(C(=O)c2cccc(-c3cccc(C#N)c3)c2)CCN1C(=O)c1ncn(-c2cccc(Cl)c2)n1` [Example 55] reads 64 nM; that for `COc1cc(OC)cc(C(=O)N2CCN(C(=O)c3ncn(-c4cccc(Cl)c4)n3)C(C)C2)c1` (centres unmarked) [Example 280], 476 nM; that for `CC(C)c1cccc(C(=O)N2CCN(C(=O)c3ncn(-c4cccc(Cl)c4)n3)C(C)(C)C2)c1` [Example 11, [1-(3-Chloro-phenyl)-1H-[1,2,4]-triazol-3-yl]-[4-(3-isopropyl-benzoyl)-2,2-dimethyl-piperazin-1-yl]methanone], 19 nM.
The result for `CC1(C)CN(C(=O)c2cc(Cl)c3c(c2)OCCO3)CCN1C(=O)c1ncn(-c2cccc(Cl)c2)n1` [Example 19] reads 51 nM.
For `Cn1nccc1-c1cccc(C(=O)N2CCN(C(=O)c3ncn(-c4cccc(Cl)c4)n3)C(C)(C)C2)n1` [Example 91] the value was 113 nM; for `Cc1c(C(=O)N2CCN(C(=O)c3ncn(-c4ccccc4)n3)C(C)(C)C2)oc2ccc(F)cc12` [Example 108], 112 nM; for `CC1CN(C(=O)c2ncn(-c3cccc(Cl)c3)n2)CCN1C(=O)c1cc2ccccc2o1` (centres unmarked) [Example 214], 428 nM.
With `COc1cc2cc(C(=O)N3CCN(C(=O)c4ncn(-c5cccc(Cl)c5)n4)C(C)(C)C3)nc(OC)c2cc1OC` [Example 32], the concentration for a half-maximal effect (EC50) came to 179 nM.
For `Cc1c(C(=O)N2CCN(C(=O)c3ncn(-c4cccc(Cl)c4)n3)C(C)(C)C2)oc2ccccc12` [Example 45] the value was 54 nM.

What is called EC50 is the midpoint of the concentration-response curve.
